Measurements as given in patent US7485641B2, “Substituted 3-amino-pyrrolidino-4-lactams” (Pfizer, Inc., priority 2006, dated 2009).
Where a name gives a salt, the structure may show the parent alone.

Each molecule was assayed on KK/H1J mice (assay: In vivo assay for glucose lowering (oral glucose tolerance test)). Details: 4-6 week old fasted KK/H1J mice, oral dosing in 0.5% methylcellulose, glucose at 15 minutes, plasma glucose at 45 minutes.
Protocol: The glucose lowering effects of the compound of Example 2 were exemplified in 4-6 week old KK/H1J mice (Jackson Labs) in the context of an oral glucose tolerance test.
The mice were fasted overnight (about 14-18 hours), but allowed free access to water. After fasting, (time “t”=0), 25 μL of blood was drawn from the retro-orbital sinus and added to 0.025% heparinized saline (100 μL) on ice. The mice (10 per group) were then orally dosed with a solution of a compound of formula (1) in 0.5% methylcellulose (0.2 mL/mouse). Two controls groups received only 0.5% methylcellulose. At time=15 minutes, the mice were bled, as described above, and then dosed with […] glucose in distilled water (0.2 mL/mouse). The first control group was dosed with glucose. The second control group was dosed with water. At time=45 minutes, the mice were again bled, as described above. The blood samples were centrifuged, the plasma collected and analyzed for glucose content on a Roche-Hitachi 912 glucose analyzer.

Row | Molecule | percent (%) inhibition of glucose excursion relative to the two control groups [%]
1 | N[C@H]1CN(c2cc(N3CCC(F)(F)C3)ncn2)C[C@@H]1N1CC(F)(F)CCC1=O [Example 2, 1-((3S,4S)-4-amino-1-(6-(3,3-difluoropyrrolidin-1-yl)pyrimidin-4-yl)pyrrolidin-3-yl)-5,5-difluoropiperidin-2-one] | 39.8

These molecules were tested against T1, DPP-IV (Homo sapiens, UniProt P27487) (assay: In vitro assay for dipeptidyl peptidase inhibition). Details: at 300 nM; n-value given in brackets.
T1 construct: purchased Enzyme Systems Products SPE-01
T1 sequence (P27487 whole entry, species assumed): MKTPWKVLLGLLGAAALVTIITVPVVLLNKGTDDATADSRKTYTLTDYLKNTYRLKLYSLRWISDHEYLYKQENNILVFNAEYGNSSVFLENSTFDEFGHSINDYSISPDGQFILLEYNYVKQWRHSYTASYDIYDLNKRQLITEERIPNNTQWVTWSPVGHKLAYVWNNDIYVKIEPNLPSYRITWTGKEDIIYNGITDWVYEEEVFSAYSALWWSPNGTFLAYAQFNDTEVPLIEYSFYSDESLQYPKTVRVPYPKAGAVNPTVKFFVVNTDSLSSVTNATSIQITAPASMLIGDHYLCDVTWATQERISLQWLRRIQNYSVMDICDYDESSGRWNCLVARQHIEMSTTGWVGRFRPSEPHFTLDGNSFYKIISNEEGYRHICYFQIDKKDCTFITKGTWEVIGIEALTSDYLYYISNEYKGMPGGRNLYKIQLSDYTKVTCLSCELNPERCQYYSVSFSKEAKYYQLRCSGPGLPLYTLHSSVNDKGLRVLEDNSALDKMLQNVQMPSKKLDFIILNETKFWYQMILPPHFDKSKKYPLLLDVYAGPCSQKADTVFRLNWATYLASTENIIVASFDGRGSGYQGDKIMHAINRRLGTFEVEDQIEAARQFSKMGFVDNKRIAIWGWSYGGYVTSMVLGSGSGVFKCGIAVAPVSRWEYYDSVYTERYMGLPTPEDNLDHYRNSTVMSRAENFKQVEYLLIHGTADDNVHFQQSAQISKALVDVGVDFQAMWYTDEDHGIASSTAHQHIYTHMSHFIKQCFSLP
Type: biochemical

Row | Molecule | DPP-IV Percent Inhibition at 300 nM
2 | N[C@H]1CN(c2ncnc3cc(OS(=O)(=O)c4ccc(F)cc4)ccc23)C[C@@H]1N1CCCCC1=O [Example 142, 4-Fluoro-benzenesulfonic acid 4-[(3S,4S)-3-amino-4-(2-oxo-piperidin-1-yl)-pyrrolidin-1-yl]-quinazolin-7-ylester] | 47/3%(4)

Same assay, conditions: n-value given in brackets; read-out: DPP-IV IC50

Row | Molecule | IC50 [nM]
3 | Cc1ccc(C)c2c1CN(c1cc(N3C[C@H](N)[C@@H](N4CCCCC4=O)C3)ncn1)C2 [Example 55, 1-{(3S,4S)-4-Amino-1-[6-(4,7-dimethyl-1,3-dihydro-isoindol-2-yl)-pyrimidin-4-yl]-pyrrolidin-3-yl}-piperidin-2-one] | 101
4 | N[C@H]1CN(c2ncnc3cc(Oc4ccccc4)ccc23)C[C@@H]1N1CC(F)(F)CCC1=O [Example 101, 1-((3S,4S)-4-amino-1-(7-phenoxyquinazolin-4-yl)pyrrolidin-3-yl)-5,5-difluoropiperidin-2-one] | 122
5 | N[C@H]1CN(C(=O)c2cc3cc(Cl)ccc3o2)C[C@@H]1N1CCCCC1=O [Example 154, 1-[(3S,4S)-4-Amino-1-[(5-chloro-1-benzofuran-2-yl)carbonyl]-pyrrolidin-3-yl]-piperidin-2-one hydrochloride] | 92.3
6 | CNS(=O)(=O)c1cccc2c1CCN(c1ncnc(N3C[C@H](N)[C@@H](N4CCCCC4=O)C3)n1)C2 [Example 58, 2-(4-((3S,4S)-3-Amino-4-(2-oxopiperidin-1-yl)pyrrolidin-1-yl)-1,3,5-triazin-2-yl)-N-methyl-1,2,3,4-tetrahydroisoquinoline-5-sulfonamidetrifluoroacetate] | 11.6
7 | CC(C)(O)c1ccc2c(N3C[C@H](N)[C@@H](N4CCCCC4=O)C3)ncnc2c1 [Example 126, 1-((3S,4S)-4-amino-1-(7-(2-hydroxypropan-2-yl)quinazolin-4-yl)pyrrolidin-3-yl)piperidin-2-one] | 66.8
8 | N[C@H]1CN(c2ncnc(N3CCC(F)(F)C3)c2F)C[C@@H]1N1CCCCC1=O [Example 21, 1-((3S,4S)-4-amino-1-(6-(3,3-difluoropyrrolidin-1-yl)-5-fluoropyrimidin-4-yl)pyrrolidin-3-yl)piperidin-2-one] | 218
9 | COc1ccc(Cl)c2c(N3C[C@H](N)[C@@H](N4CCCCC4=O)C3)ncnc12 [Example 152, 1-((3S,4S)-4-amino-1-(5-chloro-8-methoxyquinazolin-4-yl)pyrrolidin-3-yl)piperidin-2-one trifluoroacetate] | > 30000
10 | N[C@H]1CN(c2ncnc3cc(OS(=O)(=O)c4ccc(F)cc4F)ccc23)C[C@@H]1N1CCCCC1=O [Example 143, 4-((3S,4S)-3-amino-4-(2-oxopiperidin-1-yl)pyrrolidin-1-yl)quinazolin-7-yl 2,4-difluorobenzenesulfonate] | 280
11 | N[C@H]1CN(c2ncnc(N3C[C@@H](F)[C@H](F)C3)n2)C[C@@H]1N1CCCCC1=O [Example 29, 1-((3S,4S)-4-Amino-1-(4-((3R,4R)-3,4-difluoropyrrolidin-1-yl)-1,3,5-triazin-2-yl)pyrrolidin-3-yl)piperidin-2-onetrifluoroacetate] | 154
12 | N[C@H]1CN(c2cc(-c3ccccc3)ncn2)C[C@@H]1N1CCCC1=O [Example 6, 1-((3S,4S)-4-Amino-1-(6-phenylpyrimidin-4-yl)pyrrolidin-3-yl)pyrrolidin-2-one dihydrochloride] | 488
13 | CC1(O)CCN(c2ncnc(N3C[C@H](N)[C@@H](N4CCCCC4=O)C3)n2)CC1 [Example 35, 1-{(3S,4S)-4-Amino-1-[4-(4-hydroxy-4-methyl-piperidin-1-yl)-[1,3,5]triazin-2-yl]-pyrrolidin-3-yl}-piperidin-2-onetrifluoroacetate] | 558
14 | N[C@H]1CN(c2ncnc3cc(F)ccc23)C[C@@H]1N1CCCCC1=O [Example 105, 1-((3S,4S)-4-Amino-1-(7-fluoroquinazolin-4-yl)pyrrolidin-3-yl)piperidin-2-one trifluoroacetate] | 241
15 | CSc1ccc(Sc2ccc3c(N4C[C@H](N)[C@@H](N5CCCCC5=O)C4)ncnc3c2)cc1 [Example 132] | 720
16 | N[C@H]1CN(c2cc(NC3CC3)ncn2)C[C@@H]1N1CCCC1=O [Example 74, 1-((3S,4S)-4-Amino-1-(6-cyclopropylamino-pyrimidin-4-yl)pyrrolidin-3-yl)pyrrolidin-2-onetrihydrochloride] | 1400
17 | N[C@H]1CN(c2cc(N3CCC(F)(F)C3)ncn2)C[C@@H]1N1CC(F)(F)CCC1=O [Example 2, 1-((3S,4S)-4-amino-1-(6-(3,3-difluoropyrrolidin-1-yl)pyrimidin-4-yl)pyrrolidin-3-yl)-5,5-difluoropiperidin-2-one] | 8.39
18 | N[C@H]1CN(c2cc(N3CCC(F)(F)C3)nc(C(F)(F)F)n2)C[C@@H]1N1CCCCC1=O [Example 14, 1-((3S,4S)-4-amino-1-(6-(3,3-difluoropyrrolidin-1-yl)-2-(trifluoromethyl)pyrimidin-4-yl)pyrrolidin-3-yl)piperidin-2-one] | 45.1

Row | Molecule | IC50 [nM]
19 | N[C@H]1CN(c2ncnc3cc(OCc4ccccc4)ccc23)C[C@@H]1N1CCCCC1=O [Example 114, 1-((3S,4S)-4-amino-1-(7-(benzyloxy)quinazolin-4-yl)pyrrolidin-3-yl)piperidin-2-one] | 109
20 | N[C@H]1CN(c2ncnc(N3CC[C@H](F)C3)n2)C[C@@H]1N1CCCCC1=O [Example 25, 1-((3S,4S)-4-Amino-1-(4-((S)-3-fluoropyrrolidin-1-yl)-1,3,5-triazin-2-yl)pyrrolidin-3-yl)piperidin-2-onetrifluoroacetate] | 80.2
21 | N[C@H]1CN(c2cc(N3CCS(=O)(=O)CC3)ncn2)C[C@@H]1N1CCCC1=O [Example 69, 1-((3S,4S)-4-Amino-1-[6-(1,1-dioxo-6-thiomorpholin-4-yl)-pyrimidin-4-yl]-pyrrolidin-3-yl)pyrrolidin-2-onedihydrochloride] | 1060
22 | 1-((3S,4S)-4-Amino-1-(4-((R)-3-fluoropyrrolidin-1-yl)-1,3,5-triazin-2-yl)pyrrolidin-3-yl)piperidin-2-onetrifluoroacetate [Example 27] | 92.2
23 | N[C@H]1CN(c2cc(N3Cc4ccccc4C3)ncn2)C[C@@H]1N1CCCC1=O [Example 52, 1-((3S,4S)-4-Amino-1-(6-(isoindolin-2-yl)pyrimidin-4-yl)pyrrolidin-3-yl)pyrrolidin-2-onehydrochloride] | 176
24 | N#Cc1ccc(Oc2ccc3c(N4C[C@H](N)[C@@H](N5CCCCC5=O)C4)ncnc3c2)nc1 [Example 121, 6-(4-((3S,4S)-3-amino-4-(2-oxopiperidin-1-yl)pyrrolidin-1-yl)quinazolin-7-yloxy)nicotinonitrile] | 183
25 | Cc1nc(N2C[C@H](N)[C@@H](N3CCCCC3=O)C2)cc(N2CCCC(F)(F)C2)n1 [Example 34, 1-((3S,4S)-4-amino-1-(6-(3,3-difluoropiperidin-1-yl)-2-methylpyrimidin-4-yl)pyrrolidin-3-yl)piperidin-2-onetrifluoroacetate] | 277
26 | COc1ccc(-c2cc(N3C[C@H](N)[C@@H](N4CCCCC4=O)C3)ncn2)cc1 [Example 86, 1-{(3S,4S)-4-Amino-1-[6-(4-methoxy-phenyl)-pyrimidin-4-yl]-pyrrolidin-3-yl}-piperidin-2-one hydrochloride] | 55.3
27 | N[C@H]1CN(c2cc(N3Cc4ccc(C(F)(F)F)cc4C3)ncn2)C[C@@H]1N1CCCCC1=O [Example 53, 1-((3S,4S)-4-amino-1-(6-(5-(trifluoromethyl)isoindolin-2-yl)pyrimidin-4-yl)pyrrolidin-3-yl)piperidin-2-onetrifluoroacetate] | 92.4
28 | CCc1nc(N2C[C@H](N)[C@@H](N3CCCCC3=O)C2)cc(N2CCC(F)(F)C2)n1 [Example 15, 1-((3S,4S)-4-amino-1-(6-(3,3-difluoropyrrolidin-1-yl)-2-ethylpyrimidin-4-yl)pyrrolidin-3-yl)piperidin-2-one] | 39.8
29 | N[C@H]1CN(c2ncnc3cc(O)ccc23)C[C@@H]1N1CCCCC1=O [Example 123, 1-((3S,4S)-4-amino-1-(7-hydroxyquinazolin-4-yl)pyrrolidin-3-yl)piperidin-2-one trifluoroacetate] | 113
30 | COc1ccc2oc(C(=O)N3C[C@H](N)[C@@H](N4CC(F)(F)CCC4=O)C3)cc2c1 [Example 155, 1-((3S,4S)-4-amino-1-(5-methoxybenzofuran-2-carbonyl)pyrrolidin-3-yl)-5,5-difluoropiperidin-2-one] | 102
31 | N[C@H]1CN(c2ncnc(N3CCc4sccc4C3)n2)C[C@@H]1N1CCCCC1=O [Example 71, 1-{(3S,4S)-4-Amino-1-[4-(6,7-dihydro-4H-thieno[3,2-c]pyridine-5-yl)-[1,3,5]triazin-2-yl]-pyrrolidin-3-yl}-piperidin-2-onetrifluoroacetate] | 139
32 | N[C@H]1CN(c2cc(N3CCc4nocc4C3)ncn2)C[C@@H]1N1CCCCC1=O [Example 5, 1-((3S,4S)-4-Amino-1-(6-(6,7-dihydroisoxazolo[4,3-c]pyridin-5(4H)-yl)pyrimidin-4-yl)pyrrolidin-3-yl)piperidin-2-one dihydrochloride] | 11.8
33 | Cc1nc(-c2ccccc2)cc(N2C[C@H](N)[C@@H](N3CC(F)(F)CCC3=O)C2)n1 [Example 83, 1-((3S,4S)-4-amino-1-(2-methyl-6-phenylpyrimidin-4-yl)pyrrolidin-3-yl)-5,5-difluoropiperidin-2-one] | 33.9
